{"source": "paper PMC6475383", "about": "(Proceedings of the National Academy of Sciences of the …, 2019)", "key": {"sheep erythrocytes": {"test_system": "sheep erythrocytes", "assay": "C3G patient serum-induced hemolysis of sheep erythrocytes", "format": "cell-based", "settings": "0.15 µM, 20% patient serum, EGTA"}, "AP activation in plasma": {"test_system": "AP activation in plasma", "assay": "LPS-induced AP activation in mice", "format": "in vivo, C57BL/6J mice", "settings": "30 mg/kg oral, 3.5 h after i.p. LPS"}, "[1]": {"test_system": "KRN/I-Ag7 serum transfer-induced arthritis", "assay": "KRN arthritis model", "format": "in vivo, C57BL/6 mice"}, "PNH erythrocytes [2]": {"test_system": "PNH erythrocytes", "assay": "Ex vivo hemolysis of PNH erythrocytes"}, "[3]": {"test_system": "classical complement pathway", "assay": "Wieslab classical pathway assay in human serum", "format": "biochemical", "settings": "up to 100 µM"}, "[4]": {"test_system": "receptors, ion channels, kinases, and proteases", "assay": "Broad assay panel", "settings": "up to 10 µM"}, "[5]": {"test_system": "passive Heymann nephritis", "assay": "Passive Heymann nephritis", "format": "in vivo, Sprague-Dawley rats", "settings": "rats"}, "[6]": {"test_system": "lectin complement pathway", "assay": "Wieslab lectin pathway assay in human serum", "format": "biochemical", "settings": "up to 100 µM"}, "[7]": {"test_system": "C3 convertase activity in serum of C3G patients", "assay": "Inhibition of C3 cleavage in C3G patient serum", "format": "biochemical", "settings": "patient serum mixed with normal human serum, Mg2+-EGTA"}, "PNH erythrocytes [8]": {"test_system": "PNH erythrocytes", "assay": "C3-opsonization of PNH erythrocytes", "format": "cell-based, human", "settings": "acidified serum, 1 µM, flow cytometry"}, "[9]": {"settings": "prophylactic and therapeutic dosing, end of study"}}}
{"smiles": "CCO[C@H]1CCN(Cc2c(OC)cc(C)c3[nH]ccc23)[C@H](c2ccc(C(=O)O)cc2)C1", "note": "[LNP023]", "values": [{"measurement": "C3G serum-induced hemolysis of sheep erythrocytes", "setting": "sheep erythrocytes", "value": "potently blocked hemolysis"}, {"measurement": "complement activation in plasma (C3d/iC3b) after LPS", "setting": "AP activation in plasma", "value": "effectively blocked complement activation"}, {"measurement": "disease protection", "setting": "[1]; mice, 60 mg/kg b.i.d. oral", "value": "Full disease protection"}, {"measurement": "disease protection", "setting": "[1]; mice, 180 mg/kg b.i.d. oral", "value": "Full disease protection"}, {"measurement": "overall clinical score", "setting": "[1]; mice, 20, 60, and 180 mg/kg b.i.d. oral", "value": "highly efficacious"}, {"measurement": "complement activation in the joints (Ba, C3d, C5a)", "setting": "[1]; mice, all doses (20, 60, 180 mg/kg b.i.d.)", "value": "significantly inhibited complement activation"}, {"measurement": "joint histology: inflammatory cell infiltration, bone erosion, proteoglycan loss", "setting": "[1]; mice, all treated animals, after 6 d of treatment", "value": "strongly blocked"}, {"measurement": "IC50", "setting": "PNH erythrocytes [2]; Homo sapiens, Erythrocyte, 24 h, read-out: IC50 lysis of PNH erythrocytes", "value": 400, "unit": "nM"}, {"measurement": "extent of inhibition of hemolysis of PNH erythrocytes", "setting": "PNH erythrocytes [2]; dose-response, acidified NHS, FACS", "value": "full inhibition"}, {"measurement": "inhibition of classical complement pathway activation", "setting": "[3]", "value": "no inhibition"}, {"measurement": "effects in a broad assay panel of receptors, ion channels, kinases, and proteases", "setting": "[4]", "value": "no significant effects"}, {"measurement": "glomerular C3 deposition", "setting": "[5]; after compound treatment", "value": "near-complete inhibition of complement activation"}, {"measurement": "glomerulopathy", "setting": "[5]; [9]", "value": "greatly attenuate"}, {"measurement": "overall histopathology score", "setting": "[5]; [9]", "value": "significantly improve"}, {"measurement": "tubular degeneration", "setting": "[5]; [9]", "value": "prevent tubular degeneration"}, {"measurement": "disease progression after onset of proteinuria", "setting": "[5]; therapeutic dosing from day 6", "value": "immediately halted further disease progression"}, {"measurement": "inhibition of lectin complement pathway activation", "setting": "[6]", "value": "no inhibition"}, {"measurement": "C3 cleavage in C3G patient sera", "setting": "[7]", "value": "blocked abnormal C3 cleavage"}, {"measurement": "C3 deposition on the surface of CD59-negative erythrocytes", "setting": "PNH erythrocytes [8]", "value": "able to block C3 deposition"}]}
